Reference: patent US10047386B2, “Biomarker for abdominal aortic aneurysm” (THE REGENTS OF THE UNIVERSITY OF CALIFORNIA, priority 2011, dated 2018)
“And” between values parts separate entries of the source, which are not always exact repeats. Equal entries are not always repeated. “Also recorded” adds a separate entry of the source.

Tests used:
Format in all cases: in vivo
hph-1 mice [1] = assay: Mean blood pressure by intracarotid telemetry, hph-1 mice
Experimental: (§1) The hph-1 mice (originally in CBA background)^19 were backcrossed with C57BL6 mice for >10 generations and genotyped based on a protocol by Khoo et al.^21 Only homozygote hph-1 mice in C57BL6 background were used for experiments. WT and hph-1 male mice at 24 weeks of age were infused with Ang II (0.7 mg/kg per day) using subcutaneously implanted osmotic pumps (Durect Corp). During the 14-day infusion, blood pressure was monitored by telemetry method. Wireless blood pressure probes were implanted into the animals 10 days before the implantation of the osmotic pumps. The catheter of the blood pressure probe was inserted into the left carotid artery, whereas the body of the probe was inserted into the right flank.
(§2) Animals were given 1 week to recover from the surgery. After this period, blood pressure was measured for 3 days to obtain a baseline. The osmotic pumps were then implanted on day 10 after surgery. Measurements were made daily from 9:00 AM to 4:00 PM at a 250-Hz sampling rate. Average blood pressure was calculated daily as the average of the entire recording period. The use of animals and experimental procedures were approved by the institutional animal care and usage committee at the University of California Los Angeles. […]

plasma H4B [2] = assay: HPLC determination of plasma H4B, apoE null mice; settings: n=6 each (vehicle 3.31±0.13)
Experimental: (§3) H4B levels are measured using a HPLC system as previously described. Briefly, aorta samples are lysed with trichloroacetic acid and DTT, subjected to acidic or alkalytic oxidation, and H4B and its oxidized species are detected with a fluorescent detector after separation in the HPLC system (Shimadzu).
(§4) Blood samples are collected from Ang II-infused apoE null and hph-1 animals. Approximately 0.1 mL of blood is collected from each animal from the tail vein on a weekly basis. HPLC is used to determine the concentration of H4B in the blood samples as outlined above.
(§5) Also investigated was whether FA supplementation as used above leads to improved H4B availability both in the circulation and in the vascular tissues. Ang II-infused apoE null or hph-1 mice are treated with diets supplemented with FA, and circulating and aortic H4B contents are determined using HPLC at different time points of 1, 2, 3 and 4 wks. […] It is established that it takes 3-4 weeks for AAA to develop in Ang II-infused apoE null mice, and at these time points, circulating and tissues H4B levels were indeed decreased, but restored by FA treatment (FIGS. 9-10).

aortic H4B [3] = assay: HPLC determination of aortic H4B, apoE null mice; settings: n=6 (vehicle 4.86±0.32)
Experimental: as §3, §5

MMP2 [4] = assay: MMP activity zymography of aortas, MMP2, hph-1 mice
Experimental: (§6) Formalin-fixed and paraffin-embedded tissue were sectioned at 5 μm. Paraffin was removed by washing with xylene and then rehydrated with descending concentrations of ethanol. Antigen retrieval was performed by immersing the sections in an antigen retrieval buffer ([…] of citric acid, 0.01% Tween 20) at 98.5° C. for 20 minutes. Sections were washed in PBS plus 0.1% triton (PBS-T) and then blocked with 2% normal goat serum in PBS-T at room temperature for 3 hours. Sections were then incubated with primary antibody (Mac-3, BD Pharmingen, 2%, in PBS-T) overnight at 4° C. After washing with PBS-T for 1 hour, sections were incubated with secondary antibody (Alexa fluor 488, 2% in PBS-T) for 2 hours at room temperature in the dark. After washing with PBS-T for 1 hour, sections were dehydrated with ascending grades of ethanol and then xylene. Sections were mounted with Permount medium and pictures taken with a confocal microscope (Leica, SP1 inverted). MMP activity assays were performed as published previously.^22
(§7) An increase in MMP activity is one of the hallmarks of AAA development. Therefore, MMP activity can be measured using a zymography technique described in detail in other studies. Briefly, aortic lysates are loaded to gelatin infused SDS-PAGE gels. After electrophoresis, gelatin in the gel is digested by MMP in the loaded samples by incubating the gel in 37° C. overnight. […]

MMP9 = assay: MMP activity zymography of aortas, MMP9, hph-1 mice
Experimental: as §6, §7

plasma H4B [5] = assay: HPLC determination of plasma H4B, hph-1 mice; settings: n=3 each (vehicle 1.37±0.05)
Experimental: as §3, §4, §5

hph-1 mice [6] = assay: Ultrasound detection of abdominal aorta size, hph-1 mice; settings: Ang II infusion, day 0 values 0.37 (Ang II) and 0.39 (FA)
Description: (§8) Animals were anesthetized with isoflurane and placed on a temperature-controlled table, which also measures ECG for heart rate. Isoflurane levels were adjusted throughout the experiment to maintain heart rate between 400 and 500 bpm while keeping the animal sufficiently anesthetized. Hair was removed from the abdomen using a hair removal cream, and preheated ultrasound transmission gel was applied onto the abdomen area. An ultrasound probe (Velvo 770, Visualsonics) was placed on the gel to visualize aorta transversely. The aorta was identified using Doppler measurement for the presence of pulsatile flow. […] Images were recorded and saved onto a PC computer for offline area analysis. Hematoxylin-eosin and Verhoeff-Van Gieson stainings were conducted following standard histological protocols.

apoE null mice = assay: AAA formation in Ang II-infused apoE null mice; settings: for number of mice with AAA / number of mice with No AAA: Ang II 4 weeks, FA 15 mg/kg/day where given
Experimental: Animals were fed normal chow or customized FA chew (15 mg/kg/day) two days prior to Ang II infusion and throughout the study period of 4 weeks. Of note, 24 out of 26 Ang II infused apoE null mice (92.3%) on normal chow developed AAA (FIG. 11). […] L-NAME sensitive superoxide production, which reflects eNOS uncoupling activity, was also measured.
For this study, apoE null male animals were infused with Ang II for 4 weeks, which has been shown in literature to reliably produce AAA in 90-100% of the animals. One group of animals is fed food mixed with FA. AAA development is monitored using a noninvasive ultrasound technique during the infusion period. At the end of the four weeks, aortas from the animals were harvested and histology or biochemical assays were performed to assess for various markers of AAA and eNOS functional state.
Animals were either given regular chow, or food pellets made in house mixed with FA (15 mg/kg/day). Aorta are carefully dissected and cleaned of connective tissue from the animals after euthanasia. Blood samples (˜0.1 mL) are collected from each animal on a weekly basis and after euthanasia.
The development of AAA is monitored noninvasively via an ultrasound imaging system (Vevo 770, Visualsonics) during the Ang II-infusion period. The abdominal aortas were imaged transversely and identified via Doppler measurements for the presence of a major pulsatile flow. […] Aorta size is later measured offline from images captured. Two measurements per week after Ang II infusion, as well as two measurements before the Ang II infusion (for control) are made. AAA is defined as an enlargement of the abdominal aorta by at least 50%, and later confirmed at the experimental end point. The AAA incidence for this model was also assessed by direct inspection of abdominal aorta at time of harvest, or post-mortem in those died of sudden rupture.

hph-1 mice [7] = assay: Aortic histology (H&E, VVG, macrophage staining), hph-1 mice; settings: for infiltrating macrophages: Ang II-infused mice
Description: as §8, §6

endothelial DHFR = assay: Western blot of endothelial DHFR expression in aortic preparations, hph-1 mice; settings: Ang II infusion 14 days
Experimental: (§9) Animals were given 1 week to recover from the surgery. After this period, blood pressure was measured for 3 days to obtain a baseline. The osmotic pumps were then implanted on day 10 after surgery. Measurements were made daily from 9:00 AM to 4:00 PM at a 250-Hz sampling rate. Average blood pressure was calculated daily as the average of the entire recording period. The use of animals and experimental procedures were approved by the institutional animal care and usage committee at the University of California Los Angeles. Electron spin resonance determination of aortic NO and superoxide production, high-performance liquid chromatography determination of aortic H4B content, and Western blot determination of endothelial DHFR expression were performed as published previously.^1,2,5
On harvest, whole aorta was cut open longitudinally and then digested with collagenase (0.6 mg/mL) at 37° C. for 20 minutes before gentle removal of endothelial cells with a cotton applicator. The supernatant containing endothelial cells was centrifuged and lysed for Western blot analysis.

MMP2 [8] = assay: MMP activity zymography of aortas, MMP2, WT mice
Experimental: as §6, §7

WT mice [9] = assay: Mean blood pressure by intracarotid telemetry, WT mice
Experimental: as §1, §2

hph-1 mice [10] = assay: AAA formation in Ang II-infused hph-1 mice; settings: for AAA total morbidity / incidence rate: Ang II 0.7 mg/kg per day for 14 days, FA 15 mg/kg per day oral where given
Experimental: as §1
(§10) WT and hph-1 mice were started on continuous oral administration of FA (15 mg/kg per day) or tail vein transfection of DHFR expression vector (pcDNA3.1-DHFR)5 in lipid-based reagent from Altogen Biosystems every other day for 14 days, starting 2 days before Ang II infusion. The mice were monitored twice per day during the infusion period of 2 weeks, and aortas were harvested for assessment of AAA formation, endothelial DHFR expression, and eNOS uncoupling activity by day 14. Animals that died suddenly during the infusion period of 14 days were inspected for aneurysm immediately and aortas were freshly harvested for experiments.

aortic H4B [11] = assay: HPLC determination of aortic H4B content, WT mice; settings: Ang II-infused WT mice, FA 15 mg/kg per day
Experimental: as §9, §3

aortic H4B [12] = assay: HPLC determination of aortic H4B content, hph-1 mice; settings: for aortic levels of H4B: hph-1 mice, Example 3, n=3 each (vehicle 1.87±0.25)
Experimental: as §9, §3

eNOS [13] = assay: ESR aortic superoxide production with or without L-NAME (eNOS uncoupling), hph-1 mice; settings: Ang II-infused hph-1 mice
Experimental: as §9
(§11) The mice were monitored twice per day during the infusion period of 2 weeks, and aortas were harvested for assessment of AAA formation, endothelial DHFR expression, and eNOS uncoupling activity by day 14. Animals that died suddenly during the infusion period of 14 days were inspected for aneurysm immediately and aortas were freshly harvested for experiments.

WT mice [14] = assay: AAA formation in Ang II-infused wild-type mice; settings: Ang II 0.7 mg/kg per day, 14 days
Experimental: as §1, §10

WT mice [15] = assay: Ultrasound detection of abdominal aorta size, WT mice; settings: Ang II infusion, day 0 value 0.53
Description: as §8

eNOS [16] = assay: ESR aortic superoxide production with or without L-NAME (eNOS uncoupling), WT mice; settings: Ang II-infused WT mice
Experimental: as §9, §11

eNOS [17] = assay: ESR aortic superoxide production with or without L-NAME (eNOS uncoupling), apoE null mice
Experimental: L-NAME sensitive superoxide production, which reflects eNOS uncoupling activity, was also measured.
The functional state of eNOS is assessed in lysed aortic samples by measuring superoxide production in the presence or absence of L-NAME using electron spin resonance (ESR, from Bruker). Under normal conditions where eNOS is coupled, the addition of the eNOS inhibitor L-NAME will increase superoxide production, as eNOS is normally producing NO to scavenge superoxide. However, under eNOS uncoupled conditions where eNOS is producing superoxide, the addition of L-NAME will decrease superoxide production. This direction of change in superoxide production will allow for an accurate assessment of eNOS function in the aortas of the animals.

[18] = Ang II-infused hph-1 mice, FA 15 mg/kg per day

Nc1nc2ncc(CNc3ccc(C(=O)N[C@@H](CCC(=O)O)C(=O)O)cc3)nc2c(=O)[nH]1 [FA, folic acid]
effect on MBP decline (hph-1 mice [1]; [18]): prevented the decline
plasma H4B (plasma H4B [2]): 5.80 ± 0.30 pmol/mg
aortic H4B levels (aortic H4B [3]): 6.60 ± 0.62 pmol/mg
Ang II-induced MMP2 activation (MMP2 [4]): attenuated
Ang II-induced MMP9 activation (MMP9): attenuated
plasma levels of H4B (plasma H4B [5]): 2.36 ± 0.25 pmol/mg
abdominal aorta cross-sectional area at day 14 (hph-1 mice [6]): 0.52 mm^2
AAA incidence (apoE null mice; Ang II 1000 ng/kg/min for 4 weeks, FA 15 mg/kg/day in food where given): 16.7% and 17%
number of mice with AAA (apoE null mice): 4
number of mice with No AAA (apoE null mice): 20
medial degradation and adventitial inflammatory cell recruitment, H&E staining (hph-1 mice [7]; Ang II-infused hph-1 mice): abrogated
medial elastin flattening and rarefaction of elastin fibers, VVG staining (hph-1 mice [7]; Ang II-infused hph-1 mice): attenuated
infiltrating macrophages (hph-1 mice [7]): completely attenuated
endothelial DHFR expression (endothelial DHFR): restored
Ang II-induced MMP2 activation (MMP2 [8]): inhibited
effect on Ang II-induced hypertension (WT mice [9]; Ang II-infused WT mice, FA 15 mg/kg per day): highly effective in attenuating
AAA formation (hph-1 mice [10]; Ang II-infused hph-1 mice, 14 days, oral FA 15 mg/kg per day or DHFR vector tail vein transfection every other day): completely prevented and none
AAA total morbidity / incidence rate (hph-1 mice [10]; hph-1 mice): 0%
aortic H4B levels (aortic H4B [11]): even higher than baseline
aortic H4B levels (aortic H4B [12]; [18]): even higher than baseline
aortic levels of H4B (aortic H4B [12]): 3.00 ± 0.64 pmol/mg

angiotensin II (DRVYIHPF; Angiotensin-2; UniProt P11859 25-32, looked up) [Ang II, angiotensin II infused by osmotic pump to induce AAA and eNOS uncoupling in mice]
mean blood pressure (MBP) (hph-1 mice [1]; hph-1 mice, day 6 of Ang II infusion (baseline 112±3)): 140±2 mm Hg
plasma H4B (plasma H4B [2]): 1.87 ± 0.11 pmol/mg
aortic H4B levels (aortic H4B [3]): 2.72 ± 0.26 pmol/mg
eNOS uncoupling / L-NAME-sensitive O2•− production (eNOS [13]): further uncoupled; also recorded: progressive uncoupling
died or developed AAA (WT mice [14]): none
plasma levels of H4B (plasma H4B [5]): 0.92 ± 0.06 pmol/mg
abdominal aorta cross-sectional area at day 14 (hph-1 mice [6]): 1.96 mm^2
number of mice with AAA (apoE null mice): 24
number of mice with No AAA (apoE null mice): 2
abdominal aorta cross-sectional area at day 14 (WT mice [15]): 0.66 mm^2
infiltrating macrophages (hph-1 mice [7]): dramatically upregulated
endothelial DHFR expression (endothelial DHFR): further reduced
mean blood pressure (MBP) (WT mice [9]; WT mice, day 6 of Ang II infusion (baseline 101±3)): 140±2 mm Hg
AAA total morbidity / incidence rate (hph-1 mice [10]; hph-1 mice): 79%
no-AAA rate (hph-1 mice [10]; hph-1 mice, Ang II 0.7 mg/kg per day, 14 days): 21%
eNOS uncoupling / L-NAME-sensitive O2•− production (eNOS [16]): remained steady
aortic levels of H4B (aortic H4B [12]): 0.99 ± 0.11 pmol/mg
L-NAME sensitive superoxide production (eNOS uncoupling activity), fold (eNOS [17]; Ang II 4 weeks (baseline 1.17±0.06)): 2.22±0.2 fold
L-NAME-sensitive superoxide production (eNOS [17]; Ang II 4 weeks, FA 15 mg/kg/day where given): markedly increased
aortic superoxide production, fold increase (eNOS [17]; Ang II 4 weeks, n=6 each): 2.67±0.15 fold
